Source: patent US7892764B2, “System for seizure suppression” (priority 2006, dated 2011)

Columns and labels:
Format in all cases: cell-based
[1] = target: T1, ASIC current (Mus musculus, UniProt Q6NXK8); assay: Acid-induced (pH 6.0) ASIC current in mouse cortical neurons, patch-clamp recording; conditions: read-out: IC50 (concentration at 50% inhibition) of ASIC current amplitude; pH drop 7.4 to 6.0, holding potential −60 mV
T1 sequence (Q6NXK8 1-526): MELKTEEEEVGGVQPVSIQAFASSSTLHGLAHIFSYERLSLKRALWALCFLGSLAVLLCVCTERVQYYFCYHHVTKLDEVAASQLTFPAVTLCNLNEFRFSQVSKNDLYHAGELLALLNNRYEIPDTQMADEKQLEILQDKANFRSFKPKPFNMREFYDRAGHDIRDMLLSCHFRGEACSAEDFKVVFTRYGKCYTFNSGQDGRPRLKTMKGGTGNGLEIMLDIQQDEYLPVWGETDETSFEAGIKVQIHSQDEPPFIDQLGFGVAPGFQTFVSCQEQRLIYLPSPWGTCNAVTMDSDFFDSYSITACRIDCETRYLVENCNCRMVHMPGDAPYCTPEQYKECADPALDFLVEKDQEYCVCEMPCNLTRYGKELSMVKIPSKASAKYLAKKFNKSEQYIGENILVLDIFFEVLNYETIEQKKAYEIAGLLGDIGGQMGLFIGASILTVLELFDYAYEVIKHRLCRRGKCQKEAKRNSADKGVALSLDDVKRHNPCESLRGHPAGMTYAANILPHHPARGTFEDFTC
Description: Mouse cortical neurons in culture were monitored electrophysiologically by patch-clamp recording of current at a holding potential of −60 mV. An ASIC current was induced at this holding potential by dropping the extracellular pH from physiological pH (pH 7.4) to pH 6.0, in the presence of different concentrations of benzamil (FIG. 11) or EIPA (FIG. 12). The current traces obtained are presented in the upper part of FIGS. 11 and 12. […] Therefore, amiloride derivatives inhibit ASIC channel activity and may be used for seizure suppression in subjects prone to seizures and/or having a seizure.

[2] = tested on: ASIC current; assay: Effect of antiepileptic agents on ASIC current activated by pH drop from 7.4 to 6.0 in isolated neurons
Description: Activation of ASICs may be involved in increased neuronal excitability and thus seizure generation. Inhibition of ASICs, on the other hand, is expected to be antiepileptic. To test this hypothesis further, we performed a study to examine the effect of currently available antiepileptic agents—particularly those agents for which the mechanism of action is not fully understood—on ASIC currents. We suspected that some of the current antiepileptic agents may, in fact, exert their antiepileptic effect partially through their inhibition of an ASIC current. Three commonly used antiepileptic agents were tested on an ASIC current activated by a pH drop from 7.4 to 6.0. […] Perfusion of lamotrigine (1 mM), however, inhibited the current by 43±13% (n=3, p<0.05, FIG. 15B), whereas perfusion of 1 mM felbamate reduced the amplitude of the ASIC current by nearly 60% (n=3. FIG. 15C).

[3] = tested on: mouse hippocampal slices; assay: Low Mg2+-induced epileptiform bursting activity (evoked and spontaneous) in hippocampal slices; conditions: 200 ng/mL PcTX1 venom or 20 nM synthetic PcTX1, absence of Mg2+
Procedure: Limbic seizures (Avoli et al., 2002) are modeled by removing Mg^2+ from artificial cerebral spinal fluid (aCSF) in slices of hippocampal-entorhinal cortex, which triggers interictal-like bursting activity, or spontaneous ictal-like events (Wong et al., 2001; Anderson et al., 1986). In the presence of normal Mg^2+ (1.5 mM), stimulation of Schaffer collaterals induces single population spike or EPSP in the CA1 region of the hippocampus. […] Perfusion with Mg^2+-free aCSF for about 30 min evoked synchronous burst firing with the same stimulation intensity. In about, 30% of the slices, spontaneous clustered bursts developed in the absence of electrical stimulation. Bath perfusion of amiloride or PcTX1 for 10 min reduced the amplitude and frequency of evoked bursting activity (FIGS. 5A and 5B). Amiloride (100 μM) reduced the amplitude of the first and the second population spikes (from 1.2±0.2 mV to 0.5±0.2 mV and 0.6±0.03 mV to 0.2±0.05 mV, respectively (n=9: p<0.01, FIGS. 5A and 5B), and the number of population spikes (from 4.7±0.6 to 3.3±0.8, n=9, p<0.05)). Similarly, PcTX1 (200 ng/mL) attenuated the amplitude of the population spike (from 2.1±0.3 to 1.6±0.2 mV, n=9, p<0.05) and the number of spikes (from 4.2±0.6 to 3.0±0.6, p<0.05).
Preparation of hippocampal slices and brain slice recording. Hippocampal slices were obtained from 8- to 10-week-old mice. The protocol for brain-slice recording was approved by the Institutional Animal Care and Use Committee of Legacy Research. Animals were deeply anesthetized with isoflurane and decapitated. Brains were quickly removed and placed in ice-cold solution that contained: 125 mM sucrose, 2.5 mM KCl, 26 mM NaHCO3, 1.25 mM NaHPO4, 6.0 mM […], 0.5 mM CaCl2, and 10 mM glucose, and was saturated with 95% O2 and 5% CO2 (pH 7.4). Hippocamnpal slices were cut in 400 μm thickness in transverse plane with a vibratome (Leica VT 1000S) and placed in a slice holding chamber (BSC-PC Prechamber, Warner Instrument) and incubated in normal artificial cerebral spinal fluid (aCSF) that contained: 125 mM NaCl, 2.5 mM KCl, 26 mM NaHCO3, 1.25 mM […], 1.0 mM MgSO4, 2.0 mM CaCl2, and 10 mM glucose, and was saturated with 95% O2 and 5% CO2 (pH 7.4).
Following ˜60 min of incubation at room temperature, individual slices were transferred to a submerged slice chamber with a volume of 0.5 mL (Warner Instruments, Hamden, Conn.) and perfused with oxygenated aCSF (35° C.) at a rate of 3-4 mL/min. Recording electrodes were pulled from borosilicate glass and filled with aCSF. The population spike and the field excitatory postsynaptic potentials (fEPSP) were recorded in stratum pyramidale and striatum radiatum of hippocampal CA1 region, by stimulating Schaffer Collaterals.
For low Mg^2+ induced epileptic burst activity, Mg^2+-free aCSF was perfused to the slices for ˜30 min. For stimulus-train induced bursting discharges (STIB), each stimulation train consisted of 120 pulses at 60 Hz and each pulse was 100 μsec in duration (Stasheff et al., 1985). A 10-minute interval of non-stimulation was provided between successive trains of high frequency stimulation. Stimulation electrodes were located in striatum radiatum between CA1 and CA3 region. The population spikes were recorded from striatum pyramidale of the CA3 region.
Pharmacological and electrical bursting models. To induce epileptic burst discharges, Mg^2+-free aCSF was applied. Mg^2+-free aCSF was obtained by simply omitting MgSO4 from aCSF.

[4] = target: T2, ASICs (Mus musculus, UniProt Q6NXK8); assay: Acid (pH 7.0/7.1)-induced membrane depolarization and neuronal firing, current-clamp recording; conditions: pH 7.0; amiloride 100 μM or synthetic PcTX1 20 nM
T2 construct: Primary neuronal cultures were prepared from embryonic Swiss mice at 15 to 16 days of gestation; endogenous in cells
T2 sequence (Q6NXK8 1-526): T1 sequence (Q6NXK8 1-526)
Description: Unlike ischemia, only moderate pH changes (e.g., ˜0.3 pH unit) are reported in brain parenchyma during seizures (Chesler et al., 1988: Chesler et al., 1992), although pH in the synaptic cleft may be much lower (Chesler et al., 1992; Wemmie et al., 2006). […] One possibility is that voltage-clamp recording has relatively low sensitivity to resolve small current in whole-cell configuration. To provide more evidence that the decreases of pHo to the level seen in epilepsy can indeed activate the ASICs and cause neuronal excitation, we have also used current-clamp recording to study changes of membrane depolarization and neuronal firing by small changes of pHo. Due to the large input resistance of most CNS neurons (e.g., ˜500 MΩ), even a small membrane current (e.g., 10-20 pA, which is difficult to resolve in voltage-clamp recording in general) can induce significant membrane depolarization in current-clamp conditions. Mouse cortical neurons were used for current-clamp recordings 14 days after the culture.
Cortical neuronal culture. Primary neuronal cultures were prepared from embryonic Swiss mice at 15 to 16 days of gestation according to our previously described techniques (Xiong et al., 2004). In brief, cerebral cortices from 10 to 12 embryos were dissected and incubated with 0.05% trypsin-EDTA for 10 min, dissociated by trituration with a fire-polished glass pipette, and plated on poly-L-ornithine-coated culture dishes at a density of 0.5×10^6 cells per dish. Neurons were cultured with Neurobasal medium supplemented with B27 (Invitrogen). The cultures were maintained at 37° C. in a humidified 5% CO2 atmosphere incubator and were used for experiments after 12-14 days.
Patch clamp techniques. Whole-cell voltage-clamp and current-clamp recordings were performed as described in our previous studies (Xiong et al., 2004). […] Whole-cell currents were recorded using Axopatch 200B amplifiers with pCLAMP software (Axon Instruments, CA, USA). […]

Which IC50 [1] does the source give for CCN(c1nc(N)c(C(=O)N=C(N)N)nc1Cl)C(C)C [EIPA, 5-(N-ethyl-N-isopropyl)-amiloride] here?
The IC50 was roughly 20 µM.

CCC1(C)CC(=O)NC1=O (stereo not shown) [ethosuximide] was tested. Which “effect on amplitude of the ASIC current” value ([2]; 1 mM, bath application 5 min, pH drop from 7.4 to 6.0) did it give?
Its value is “did not affect”.

With NC(=O)OCC(COC(N)=O)c1ccccc1 [felbamate] as the compound, how does the “inhibition of ASIC current amplitude” value ([2]; 1 mM, pH drop from 7.4 to 6.0) read?
Its value is roughly 60%.

Nc1nnc(-c2cccc(Cl)c2Cl)c(N)n1 [lamotrigine] was tested. Which “effect on desensitization of the ASIC current” value [2] did it give?
The value was “enhances the desensitization”.

What about the “inhibition of ASIC current amplitude” value ([2]; 1 mM, pH drop from 7.4 to 6.0) of the same compound?
The value was 43±13%.

Which “effect on frequency of spontaneous clustered bursting activity” value [3] does the source give for “synthetic PcTX1: chemically synthesized PcTX1 peptide, used at 20 nM” here?
Its value is “reduced the frequency”.

And the “effect on acid-induced neuronal excitation (membrane depolarization, firing rate)” value [4]?
The value was “largely and significantly reduced”.
